Entries after “also recorded” stand apart in the source; their conditions may differ. Read-outs that look alike come from different tables or passages of the source.
Key:
[1] = test system: DBT glioma cells; details: mouse
[2] = test system: PC3 cells; assay type: cell-based
[3] = test system: VSV-d51-GFP; assay type: cell-based
[4] = test system: primary prostate cancer cells; assay type: cell-based
[5] = test system: IFN-α; assay type: cell-based, human
[6] = test system: IFN antiviral response; assay type: cell-based
[7] = test system: IFN antiviral response pathway; assay type: cell-based
[8] = test system: VVDD; assay type: cell-based, vaccinia virus
[9] = test system: VSVΔ51-Luc; set-up: species or system CD1 nude mice; details: mouse, in vivo
[10] = test system: VSVΔ51-Luc; set-up: species or system BALB/c mice; details: mouse, in vivo, 20 mg/kg
[11] = test system: VSV-d51-GFP
[12] = test system: normal PBMCs
[13] = test system: VSVΔ51 neutralizing antibody; details: mouse, in vivo
[14] = test system: semliki forest virus (VA7); assay: Semliki forest virus (VA7) spread and titers in glioma cell lines; assay type: cell-based
[15] = test system: VVDD; assay type: cell-based, vaccinia virus; details: TSA 0.156 μM 3 hours pre-treatment
[16] = test system: B16-F10-lacZ; assay: B16-F10-lacZ lung metastasis model; assay type: in vivo, C57BI6 mice; details: 0.05 mg TSA i.p. daily to day 4 + 10^7 pfu VVdd i.v. twice; lungs day 14; p<0.05 vs PBS, VVdd or TSA single treatments
[17] = test system: VSV-d51-GFP; assay type: cell-based; details: 24 hours

Compound	VA7-mediated cytotoxicity (cell viability) [1]	JC-1 green fluorescence (mitochondrial membrane potential) [2]	activation of caspase 9 (immunoblot) [2]	number of Annexin V-positive apoptotic cells (flow cytometry) [2]	visible signs of cell death (phase-contrast microscopy) [2]	VSV replication (GFP-positive cells, fluorescent microscopy) [3]	VSV replication (GFP, flow cytometry) [4]	IFN production (IFN-α ELISA) [5]	induction of MxA mRNA [6]	level of IFN-β mRNA [6]	IRF3 phosphorylation [7]	activation of IRF7, ISG56 and RIG-I [7]	sensitivity of normal tissue to VSV infection [11]	VSV-GFP replication (flow cytometry) [12]	further results
CCC(=O)CCCCC[C@@H]1NC(=O)[C@H]2CCCCN2C(=O)[C@H]([C@@H](C)CC)NC(=O)[C@H](Cc2cn(OC)c3ccccc23)NC1=O [Apicidin]	enhance VA7-mediated cytotoxicity	–	–	–	–	–	–	–	–	–	–	–	–	–	–
Nc1ccccc1NC(=O)c1ccc(CNC(=O)OCc2cccnc2)cc1 [MS-275]	–	increased JC-1 green fluorescence	significant activation	synergistically enhanced the number of Annexin V-positive apoptotic cells	not able to induce visible signs of cell death	allowed effective VSV replication	allowed effective VSV replication	significantly inhibited IFN production	decreased the induction of MxA mRNA	significantly lower; also recorded: undetectable levels	allowed detection of IRF3 phosphorylation and concomitant degradation	inhibited	specific towards cancer cells	did not increase VSV-GFP replication	replication of VVDD [8]: able to synergize the replication of VVDD in 4T1, B16 and SW620 cells; VSV antigen in tumors (IHC of frozen sections) [9]: more abundant presence of VSV antigen; viral replication in tumor-bearing mice (IVIS) ([9]; ip): more robust viral replication; VSV replication in SW620 tumors ([9]; iv): enhancing effect; viral replication (IVIS) [10]: more robust and persistent viral replication; VSV in spleen and lungs (24 hours): sensitive/permissive to VSV; VSV in spleen and lungs (72 hours): started to clear out; loss of total weight (mouse, in vivo): approximately 15%; survival of mice (mouse, in vivo): all of the mice survived; VSV biodistribution in major organs (mouse, in vivo, iv): comparable results of viral spread and replication in major organs; VSV neutralizing antibody production [13]: Inhibit; VSV-G specific antibody production (miniblot) [13]: Inhibit
O=C(CCCCCCC(=O)Nc1ccccc1)NO [SAHA, suberoylanilide hydroxamic acid]	enhance VA7-mediated cytotoxicity	increased JC-1 green fluorescence	significant activation	synergistically enhanced the number of Annexin V-positive apoptotic cells	not able to induce visible signs of cell death	allowed effective VSV replication	allowed effective VSV replication	significantly inhibited IFN production	decreased the induction of MxA mRNA	significantly lower; also recorded: undetectable levels	allowed detection of IRF3 phosphorylation and concomitant degradation	inhibited	specific towards cancer cells	did not increase VSV-GFP replication	VA7 viral titers (pfu/ml) ([14]; SAHA 5 μM or Apicidin 1 μM 1 hour pre-treatment, MOI 0.01, DBT, CT2A, U251 cells, vs DMSO): enhanced the viral titers; Semliki forest virus spread (GFP photomicrographs) ([14]; SAHA 5 μM or Apicidin 1 μM, DBT cells, MOI 0.01, 30 hours): Enhance
CC(/C=C/C(=O)NO)=C\[C@@H](C)C(=O)c1ccc(N(C)C)cc1 [Trichostatin A]	–	–	–	–	–	–	–	–	–	–	–	–	–	–	VVdd spread (GFP photomicrographs) ([15]; MOI 0.1, 48 h): Increases; VVdd titers (pfu/ml) ([15]; MOI 0.1, 72 h): Increases; number of lung metastases [16]: Reduces the Number of Metastases
IFN-α	–	–	–	–	–	–	–	–	–	–	–	–	–	–	cell permissiveness to viral infection (GFP expression) [17]: decrease cell permissiveness to viral infection
z-VAD-fmk	–	–	–	–	–	–	–	–	–	–	–	–	–	–	activation of apoptosis by VSV+MS-275 or VSV+SAHA (Annexin V) [2]: abrogated activation of apoptosis

Reference: patent US20110044952A1, “AMPLIFICATION OF CANCER-SPECIFIC ONCOLYTIC VIRAL INFECTION BY HISTONE DEACETYLASE INHIBITORS” (Ottawa Health Research Institute, priority 2007, published 2011)
